± gives the expanded uncertainty stated by the source.
What was measured:
[1] = Liquid, Ebulliometric method (Recirculating still)
[2] = refractive index (Na D-line) (dimensionless); conditions: 101.33 kPa, Standard Abbe refractometry

O [water]
vapor or sublimation pressure ([1]; 373.05 K): 101.3 ± 0.5 kPa

Cc1cccc(C)c1O [2,6-dimethylphenol]
vapor or sublimation pressure ([1]; 418.21 K): 20 ± 0.2 kPa | Normal boiling temperature [1]: 201.20 ± 1 °C | refractive index ([2]; 293.15 K, Metastable liquid): 1.5075 ± 0.0008 | refractive index ([2]; 298.15 K, Metastable liquid): 1.5053 ± 0.0008

Cc1cccc(O)c1 [3-methylphenol]
vapor or sublimation pressure ([1]; 422.28 K): 20 ± 0.2 kPa | Normal boiling temperature [1]: 202.20 ± 1 °C | refractive index ([2]; 293.15 K, Liquid): 1.5396 ± 0.0008 | refractive index ([2]; 298.15 K, Liquid): 1.5374 ± 0.0008

CC(O)CNCC(C)O (stereo not drawn) [N-(2-hydroxypropyl)-2-hydroxy-1-propanamine]
vapor or sublimation pressure ([1]; 468.25 K): 20 ± 0.2 kPa | Normal boiling temperature [1]: 249.1 ± 1 °C | refractive index ([2]; 294.15 K, Liquid): 1.4625 ± 0.0008

CCO [ethanol]
vapor or sublimation pressure ([1]; 351.38 K): 101.3 ± 0.5 kPa

Source: the NIST ThermoML archive (doi:10.1021/acs.jced.7b00827)
